Each structure is given as a SMILES string. pEC50, pKi: −log10 of the molar value.

One assay concerns the target Bcl-xL protein (Homo sapiens (Human), UniProt Q07817). The experiment in a line: TR-FRET binding assay, Bcl-xL. As to conditions: F-Bak peptide probe. The method, then: (§1) Determination of the utility of compounds having Formula (I) or Formula (II) as binders to and inhibitors of anti-apoptotic Bcl-2 proteins was performed using the Time Resolved-Fluorescence Resonance Energy Transfer (TR-FRET) Assay. Tb-anti-GST antibody was purchased from Invitrogen (Catalog No. PV4216).
A human Bcl-xL encoding sequence was cloned into a pET41A vector. The protein was expressed with E. coli. BL21(DE3)-T1R strain in OETB autoinduction medium at 30° C. for 25 hours. The cell pellets were resuspended in lysis buffer (50 mM Tris, 140 mM NaCl, 1 mM DTT, 10% Glycerol, 0.1% Triton X-100, pH 7.5) and lysed with Microfluidizer. The Bcl-xL protein in clarified cell-lysate was purified with GST affinity chromatography. The eluate was dialyzed in the storage buffer (1×PBS, 10% Glycerol, 2 mM DTT, 1 mM Sodium Azide, pH 7.4) and stored at −80° C.
(§2) […] of a protein (Bcl-2 or Bcl-xL)/probe/antibody mixture pre-equilibrated for one hour in assay buffer was added to each well at final concentrations listed in Table 6 below.
(§3) The samples were then mixed on a shaker for 1 minute and equilibrated for an additional 3 hours at room temperature. For each assay plate, a probe/antibody and protein/antibody/probe mixture were included as a negative and a positive control, respectively. Fluorescence was measured on the Envision (Perkin Elmer) using a 340/35 nm excitation filter and 520/525 (F-Bak) and 495/510 nm (Tb-labeled anti-GST antibody) emission filters. Inhibition constants (Ki) were determined using Wang's equation (Wang FEBS Lett. 1995, 360, 111-114). The TR-FRET assay can be performed in the presence of varying concentrations of human serum (HS) to determine apparent half maximal inhibitory concentration (IC50) after HS protein binding.
(§4) Inhibition constants were determined using Wang's equation (Wang FEBS Lett. 1995, 360:111-4).

Another assay addresses Bcl-2 protein (Homo sapiens (Human), UniProt P10415). Kind of assay: TR-FRET binding assay, Bcl-2. As to conditions: F-Bak peptide probe, GST-Bcl-2. The method, then:
as §1
A Bcl-2 human encoding sequence was cloned into a pET41A vector (Novagen). The protein was expressed with E. coli. BL21(DE3)-T1R strain in OETB autoinduction medium at 30° C. for 25 hours. The cell pellets were resuspended in lysis buffer (50 mM Tris, 140 mM NaCl, 1 mM DTT, 10% Glycerol, 2 mM MgCl2, pH 7.3) and lysed with Microfluidizer. The Bcl-2 protein in clarified cell-lysate was purified with affinity chromatography (GST and Ni-NTA). The eluate was loaded onto a Superdex 75 column and further purified with a Q Sepharose column. The protein was purified on a phenyl hydrophobic interaction column and dialyzed in the storage buffer (50 mM Tris, 50 mM NaCl, 2 mM DTT, pH 7.5) and stored at −80° C.
as §2, §3, §4
(In TR-FRET formats the signal depends on donor and acceptor labels being close together.)

Another assay concerns Molt-4 cells. The experiment in a line: Cell viability counter screen (CellTiter-Glo) in Molt-4 cells. Type of assay: cell-based. As to conditions: 24 hours, 10% Human Serum. Here is the method:
The acute lymphoblastic leukemia (ALL) human cell line RS4;11 (ATCC, Manassas VA) was used as the primary human cell line to assess the cellular activity of compound of the present Examples in vitro and their efficacy in vivo. […] The acute lymphoblastic leukemia cell line Molt-4, which is derived from immature T-lymphoid cells (T-ALL), was used as a counter screen assay.
3000 Cells (0.1×10^6/mL) were seeded in each well of 384-well plate and were treated for 24 hours in a humidified chamber with 5% CO2. Cell viability was determined by CellTiter-Glo as described by the manufacturer's instructions (Promega Corporation, Madison, WI, USA).
(Counterscreens check selectivity or assay interference.)

Sequence of Bcl-2 protein (P10415 other isoform, or with tags, fused parts or gaps): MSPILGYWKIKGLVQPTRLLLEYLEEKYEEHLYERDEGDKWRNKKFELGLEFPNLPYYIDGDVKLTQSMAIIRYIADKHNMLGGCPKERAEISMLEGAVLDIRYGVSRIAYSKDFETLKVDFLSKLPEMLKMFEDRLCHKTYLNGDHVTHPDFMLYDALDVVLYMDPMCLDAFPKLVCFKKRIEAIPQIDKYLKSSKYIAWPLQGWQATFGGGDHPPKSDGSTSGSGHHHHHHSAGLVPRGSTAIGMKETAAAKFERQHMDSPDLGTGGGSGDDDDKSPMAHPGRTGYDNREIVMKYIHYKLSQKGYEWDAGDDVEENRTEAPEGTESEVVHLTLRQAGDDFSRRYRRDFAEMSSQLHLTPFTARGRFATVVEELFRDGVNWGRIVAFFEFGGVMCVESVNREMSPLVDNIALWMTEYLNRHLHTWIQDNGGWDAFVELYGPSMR
Sequence of Bcl-xL protein (Q07817 other isoform, or with tags, fused parts or gaps): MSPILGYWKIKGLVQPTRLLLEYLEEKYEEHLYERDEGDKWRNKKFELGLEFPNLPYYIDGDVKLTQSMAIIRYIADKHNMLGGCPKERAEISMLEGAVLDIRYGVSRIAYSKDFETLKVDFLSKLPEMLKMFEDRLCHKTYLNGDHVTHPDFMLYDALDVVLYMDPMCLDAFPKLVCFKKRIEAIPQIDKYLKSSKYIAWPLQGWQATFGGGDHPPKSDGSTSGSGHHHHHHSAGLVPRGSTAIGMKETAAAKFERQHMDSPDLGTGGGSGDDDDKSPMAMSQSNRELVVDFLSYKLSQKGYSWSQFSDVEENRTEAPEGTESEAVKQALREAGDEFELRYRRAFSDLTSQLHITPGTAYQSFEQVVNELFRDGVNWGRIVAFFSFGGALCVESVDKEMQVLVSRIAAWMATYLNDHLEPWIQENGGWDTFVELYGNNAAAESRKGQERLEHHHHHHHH

For orientation: pKi means the Ki on a negative log10 scale, so that one unit is a factor of ten. Read a low pKi as a high Ki. The term pEC50 denotes the negative decadic logarithm of the EC50, by convention in mol/L. The low end stands for a high EC50, the high end for a low EC50. As for `CO[C@H]1CC[C@H](CNc2ccc(S(=O)(=O)NC(=O)c3ccc(N4CCN5CC6=C(c7ccc(Cl)cc7)CC(C)(C)C[C@H]6OCCCOC[C@@H]5C4)cc3N3CCCOc4nc5[nH]ccc5cc43)cc2Cl)OC1` [Example 34, N-((3-chloro-4-((((2R,5S)-5-methoxytetrahydro-2H-pyran-2-yl)methyl)amino)phenyl)sulfonyl)-4-((4aS,10aR)-14-(4-chlorophenyl)-12,12-dimethyl-1,2,4a,5,8,9,10a,11,13,15-decahydro-7H,12H-benzo[f]pyrazino[2,1-c][1,8]dioxa[4]azacycloundecin-3(4H)-yl)-2-(3,4-dihydro-2H-pyrrolo[3′,2′:5,6]pyrido[2,3-b][1,4]oxazepin-1(7H)-yl)benzamide], the negative-log Ki (pKi) on Bcl-xL protein is 6.35; at Bcl-2 protein, 9.18. The same molecule gave a pEC50 with Molt-4 cells of under 5.00.
In turn, `CC1(C)CC(c2ccc(Cl)cc2)=C2CN3CCN(c4ccc(C(=O)NS(=O)(=O)c5cnc(OC[C@H]6CC[C@](C)(O)CC6)c(Cl)c5)c(N5CCCOc6nc7[nH]ccc7cc65)c4)C[C@H]3COCCCO[C@@H]2C1` [Example 42, N-((5-chloro-6-(((1r,4r)-4-hydroxy-4-methylcyclohexyl)methoxy)pyridin-3-yl)sulfonyl)-4-((4aS,10aR)-14-(4-chlorophenyl)-12,12-dimethyl-1,2,4a,5,8,9,10a,11,13,15-decahydro-7H,12H-benzo[f]pyrazino[2,1-c][1,8]dioxa[4]azacycloundecin-3(4H)-yl)-2-(3,4-dihydro-2H-pyrrolo[3′,2′:5,6]pyrido[2,3-b][1,4]oxazepin-1(7H)-yl)benzamide] gave a pEC50 in the assay with Molt-4 cells of under 5.00.
Take `COC1(CNc2ccc(S(=O)(=O)NC(=O)c3ccc(N4CCN5CC6=C(c7ccc(Cl)cc7)CC(C)(C)C[C@H]6OCCCOC[C@@H]5C4)cc3N3CCCOc4nc5[nH]ccc5cc43)cc2[N+](=O)[O-])CCOCC1` [Example 26, 4-((4aS,10aR)-14-(4-chlorophenyl)-12,12-dimethyl-1,2,4a,5,8,9,10a,11,13,15-decahydro-7H,12H-benzo[f]pyrazino[2,1-c][1,8]dioxa[4]azacycloundecin-3(4H)-yl)-2-(3,4-dihydro-2H-pyrrolo[3′,2′:5,6]pyrido[2,3-b][1,4]oxazepin-1(7H)-yl)-N-((4-(((4-methoxytetrahydro-2H-pyran-4-yl)methyl)amino)-3-nitrophenyl)sulfonyl)benzamide]: the negative logarithm of the Ki (pKi) on Bcl-xL protein is 7.39; on Bcl-2 protein it was 8.68. In addition, the pEC50 in the assay with Molt-4 cells was under 5.00.
`CC1(C)CC(c2ccc(Cl)cc2)=C2CN3CCN(c4ccc(C(=O)NS(=O)(=O)c5cnc(OCC6(F)CCOCC6)c(Cl)c5)c(N5CCCOc6nc7[nH]ccc7cc65)c4)C[C@H]3COCCCO[C@@H]2C1` [Example 7, N-((5-chloro-6-((4-fluorotetrahydro-2H-pyran-4-yl)methoxy)pyridin-3-yl)sulfonyl)-4-((4aS,10aR)-14-(4-chlorophenyl)-12,12-dimethyl-1,2,4a,5,8,9,10a,11,13,15-decahydro-7H,12H-benzo[f]pyrazino[2,1-c][1,8]dioxa[4]azacycloundecin-3(4H)-yl)-2-(3,4-dihydro-2H-pyrrolo[3′,2′:5,6]pyrido[2,3-b][1,4]oxazepin-1(7H)-yl)benzamide]: the results for the pKi at Bcl-xL protein and at Bcl-2 protein were under 6.18 and 10.30, respectively.
The like results for `COCCO[C@H]1CC[C@H](CNc2ccc(S(=O)(=O)NC(=O)c3ccc(N4CCN5CC6=C(c7ccc(Cl)cc7)CC(C)(C)C[C@H]6OCCCOC[C@@H]5C4)cc3N3CCCOc4nc5[nH]ccc5cc43)cc2[N+](=O)[O-])OC1` [Example 35, 4-((4aS,10aR)-14-(4-chlorophenyl)-12,12-dimethyl-1,2,4a,5,8,9,10a,11,13,15-decahydro-7H,12H-benzo[f]pyrazino[2,1-c][1,8]dioxa[4]azacycloundecin-3(4H)-yl)-2-(3,4-dihydro-2H-pyrrolo[3′,2′:5,6]pyrido[2,3-b][1,4]oxazepin-1(7H)-yl)-N-((4-((((2R,5S)-5-(2-methoxyethoxy)tetrahydro-2H-pyran-2-yl)methyl)amino)-3-nitrophenyl)sulfonyl)benzamide] were, in that order, 7.64 and 10.05.
In the assay on Molt-4 cells, `CC1(C)CC(c2ccc(Cl)cc2)=C2CN3CCN(c4ccc(C(=O)NS(=O)(=O)c5ccc(OC[C@H]6CC[C@](C)(O)CC6)c(Cl)c5)c(N5CCCOc6nc7[nH]ccc7cc65)c4)C[C@H]3COCCCO[C@@H]2C1` [Example 43, N-((3-chloro-4-(((1r,4r)-4-hydroxy-4-methylcyclohexyl)methoxy)phenyl)sulfonyl)-4-((4aS,10aR)-14-(4-chlorophenyl)-12,12-dimethyl-1,2,4a,5,8,9,10a,11,13,15-decahydro-7H,12H-benzo[f]pyrazino[2,1-c][1,8]dioxa[4]azacycloundecin-3(4H)-yl)-2-(3,4-dihydro-2H-pyrrolo[3′,2′:5,6]pyrido[2,3-b][1,4]oxazepin-1(7H)-yl)benzamide] showed a negative logarithm of the EC50 (pEC50) of under 5.00.
Turning to `CC1(C)CC(c2ccc(Cl)cc2)=C2CN3CCN(c4ccc(C(=O)NS(=O)(=O)c5cnc(OCC6(F)CCN(C7COC7)CC6)c(Cl)c5)c(N5CCCOc6nc7[nH]ccc7cc65)c4)C[C@H]3COCCCO[C@@H]2C1` [Example 4, N-((5-chloro-6-((4-fluoro-1-(oxetan-3-yl)piperidin-4-yl)methoxy)pyridin-3-yl)sulfonyl)-4-((4aS,10aR)-14-(4-chlorophenyl)-12,12-dimethyl-1,2,4a,5,8,9,10a,11,13,15-decahydro-7H,12H-benzo[f]pyrazino[2,1-c][1,8]dioxa[4]azacycloundecin-3(4H)-yl)-2-(3,4-dihydro-2H-pyrrolo[3′,2′:5,6]pyrido[2,3-b][1,4]oxazepin-1(7H)-yl)benzamide], the pKi at Bcl-xL protein is 7.73; at Bcl-2 protein, 9.55.
On to `CC1(C)CC(c2ccc(Cl)cc2)=C2CN3CCN(c4ccc(C(=O)NS(=O)(=O)c5cnc(OC[C@H]6CC[C@@](C)(O)CC6)c(Cl)c5)c(N5CCCOc6nc7[nH]ccc7cc65)c4)C[C@H]3COCCCO[C@@H]2C1` [Example 50, N-((5-chloro-6-(((1s,4s)-4-hydroxy-4-methylcyclohexyl)methoxy)pyridin-3-yl)sulfonyl)-4-((4aS,10aR)-14-(4-chlorophenyl)-12,12-dimethyl-1,2,4a,5,8,9,10a,11,13,15-decahydro-7H,12H-benzo[f]pyrazino[2,1-c][1,8]dioxa[4]azacycloundecin-3(4H)-yl)-2-(3,4-dihydro-2H-pyrrolo[3′,2′:5,6]pyrido[2,3-b][1,4]oxazepin-1(7H)-yl)benzamide], for which the pEC50 in the assay with Molt-4 cells was under 5.00.
Turning to `CC1(C)CC(c2ccc(Cl)cc2)=C2CN3CCN(c4ccc(C(=O)NS(=O)(=O)c5ccc(NC[C@H]6C[C@@](O)(CF)C6)c([N+](=O)[O-])c5)c(N5CCCOc6nc7[nH]ccc7cc65)c4)C[C@H]3COCCCO[C@@H]2C1` [Example 8, 4-((4aS,10aR)-14-(4-chlorophenyl)-12,12-dimethyl-1,2,4a,5,8,9,10a,11,13,15-decahydro-7H,12H-benzo[f]pyrazino[2,1-c][1,8]dioxa[4]azacycloundecin-3(4H)-yl)-2-(3,4-dihydro-2H-pyrrolo[3′,2′:5,6]pyrido[2,3-b][1,4]oxazepin-1(7H)-yl)-N-((4-((((1r,3r)-3-(fluoromethyl)-3-hydroxycyclobutyl)methyl)amino)-3-nitrophenyl)sulfonyl)benzamide], the pKi is 9.90 at Bcl-xL protein and 9.35 on Bcl-2 protein.
